Measured values as given in patent US8357832B2, “F1B-TMIR plasmid vector and transgenic mouse” (National Health Research Institutes, priority 2009, dated 2013).

Legend:
[1] = test system: MDA-MB231 cells that constitutively express large amount of eGFP-tk; settings: cited from earlier work
[2] = test system: CMV-TMIR transfected CHO cells; experiment: Luciferase activity assay after GCV treatment (sensitivity to GCV, functioning HSV1Δtk); assay type: cell-based, Chinese hamster; settings: low or high concentration of GCV (0.005 or 0.1 μg/ml), 72 h, normalized to β-gal
[3] = test system: F1B-TMIR transfected CHO cells; experiment: as above; assay type: cell-based, Chinese hamster; settings: low or high concentration of GCV (0.005 or 0.1 μg/ml), 72 h, normalized to β-gal
Procedure: FIG. 1. (A) Structure of the F1B-TMIR transgenic vector. The restriction sites mentioned in the construction method are shown. (B) Fluorescent pictures of CHO cells transiently transfected by F1B-TMIR vector. Scale bar=100 μm. (C) The luciferase activity in F1B-TMIR transfected CHO cells following the incubation with GCV. The data shown were the luciferase activity normalized to the β-gal activity from a co-transfected RSV-β-gal vector. Error bars represent mean+SEM, n=3, *P<0.05, compared to the untreated group.
Chinese hamster ovary […] (CHO-K1) were maintained in F-12 medium supplemented with 10% fetal bovine serum (FBS) and the antibiotics penicillin, streptomycin, and amophotericin B (PSA) in a 95% air and 5% CO2 humidified incubator. DNA vectors including a RSV β-galactosidase control vector for normalization of transfection efficiency were transfected into the cells using PolyFect (Qiagen) reagent by following manufacturer's protocol. […]
The TMIR vectors driven by CMV or F1B promoter were constructed as foregoing description. […] There was a decrease in the number of cells expressing GFP and in the intensity of fluorescence in F1B-TMIR transfected cells than cells transfected by CMV-TMIR (FIG. 1B) as a result of weaker transactivity by FIB promoter. […]

[4] = test system: ZR75-1 cells that constitutively express low amount of eGFP-tk; settings: cited from earlier work
[5] = test system: TMIR expressing tissues (HSV1Δtk) of F1B-TMIR mice; experiment: [131I]FIAU γ-camera imaging of F1B-TMIR transgenic mice; assay type: in vivo, mouse
Excerpt: FIG. 4. […] Image of young female mice #7, #29 (Right) was shown for comparison.
Carrier-free [^131I] (2′-fluoro-2′-deoxy-1-β-D-arabinofuranosyl-5-iodouracil) ([^131I]FIAU) was synthesized from 5-trimethylstannyl-1-(2′-deoxy-2′-fluoro-1-β-D-arabinofuranosyl)-uracil (FTAU) by an oxidative iododestannylation method as previously described (Deng W P, Yang W K, Lai W F, et al. Non-invasive in vivo imaging with radiolabelled FIAU for monitoring cancer gene therapy using herpes simplex virus type 1 thymidine kinase and ganciclovir. Eur J Nucl Med Mol Imaging. January 2004; 31 (1):99-109). The radiochemical purity of [^131I]FIAU was >95%, as determined by thin layer chromatograph (TLC) method on a silica gel coated aluminum sheet using ethyl acetate-ethanol mixture (90:10, v/v) as the mobile phase. A Siemens E.CAM dual-head γ-camera, equipped with custom-made 1 mm pinhole collimator, was used for the animal γ-imaging. To block the thyroid uptake of radioiodine, mice were injected with sodium iodine saline (0.9% sodium iodine in normal saline, 1 ml/animal) 15 min prior to the intraperitoneal injection of 11.1 MBq [^131I] FIAU. The animal was laid in the prone position and 4 cm distant from the pinhole center to provide a full coverage of the body. […] The image was scanned one week after injection of probe to ensure adequate clearance of unwanted background radioactivity. […]

Row | Structure (SMILES) | ED50 (the dose resulted in 50% of cell death after 7 days) [1] [ng/mL] | loss of luciferase activity [2] [%] | loss of luciferase activity [3] [%] | ED50 (the dose resulted in 50% of cell death after 7 days) [4] | uptake at head (γ imaging) ([5]; F1B-TMIR mice #2, #7, #29, one week after probe injection) | uptake in testis (γ imaging) ([5]; male F1B-TMIR mice, one week after intraperitoneal injection of 11.1 MBq probe, absent in female mice)
1 | Nc1nc(O)c2ncn(COC(CO)CO)c2n1 [GCV, Ganciclovir] | 5 | 45 | 35 | around 0.1 μg/ml |  | 
2 | O=c1[nH]c(=O)n([C@@H]2O[C@H](CO)[C@@H](O)[C@@H]2F)cc1[131I] [[^131I]FIAU, [^131I] (2′-fluoro-2′-deoxy-1-β-D-arabinofuranosyl-5-iodouracil)] |  |  |  |  | low uptake | strong uptake
